One test has as its target T1, hP2X2/3H (Homo sapiens, UniProt P56373+Q9UBL9).
T1 construct: expressed in transfected cells; host or cells: e.g. HEK293 or 1321N1
T1 sequence (Q9UBL9 1-471): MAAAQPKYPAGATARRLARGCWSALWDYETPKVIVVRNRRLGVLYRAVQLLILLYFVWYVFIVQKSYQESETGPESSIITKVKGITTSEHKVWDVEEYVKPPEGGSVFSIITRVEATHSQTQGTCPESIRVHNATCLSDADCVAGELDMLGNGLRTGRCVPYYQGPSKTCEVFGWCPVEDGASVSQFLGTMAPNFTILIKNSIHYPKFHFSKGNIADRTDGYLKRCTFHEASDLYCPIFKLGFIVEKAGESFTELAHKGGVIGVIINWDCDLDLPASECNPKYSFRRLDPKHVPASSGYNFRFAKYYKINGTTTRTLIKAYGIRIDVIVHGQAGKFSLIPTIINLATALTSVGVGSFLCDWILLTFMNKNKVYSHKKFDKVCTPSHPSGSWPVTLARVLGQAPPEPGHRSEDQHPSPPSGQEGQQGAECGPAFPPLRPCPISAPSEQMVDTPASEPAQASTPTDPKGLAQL
T1 sequence (P56373 1-397): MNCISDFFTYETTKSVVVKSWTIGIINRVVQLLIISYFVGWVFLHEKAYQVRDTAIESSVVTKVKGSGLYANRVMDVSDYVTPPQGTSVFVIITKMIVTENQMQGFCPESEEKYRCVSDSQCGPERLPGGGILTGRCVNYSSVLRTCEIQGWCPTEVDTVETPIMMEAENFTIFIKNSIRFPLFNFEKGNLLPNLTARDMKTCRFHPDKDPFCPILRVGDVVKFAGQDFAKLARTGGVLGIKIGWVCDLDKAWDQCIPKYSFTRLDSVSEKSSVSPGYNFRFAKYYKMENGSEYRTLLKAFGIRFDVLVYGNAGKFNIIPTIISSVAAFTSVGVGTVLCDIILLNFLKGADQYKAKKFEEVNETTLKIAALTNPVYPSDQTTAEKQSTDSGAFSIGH
In words: Calcium uptake assay (P2X antagonist assay), P2X2/3 heteromer. In kind it is cell-based. To be noted: read-out: IC50 hP2X2/3H. A digest of the protocol: (§1)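 Stably or transiently transfected HEK293 or 1321N1 cells; the heteromer is made by adding P2X3 to a P2X2-stable line, with heteromer function isolated pharmacologically. The peak-minus-baseline FLIPR calcium signal gives % inhibition and a 4-parameter-logistic IC50.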

The target of another test is T2, hP2X3 (Homo sapiens, UniProt P56373).
T2 construct: expressed in transfected cells; host or cells: e.g. HEK293 or 1321N1
T2 sequence (P56373 1-397): T1 sequence (P56373 1-397)
In words: Calcium uptake assay (P2X antagonist assay), P2X3 homomer. In kind it is cell-based. To be noted: read-out: IC50 hP2X3. In short, it runs like this: as §1

[1] abbreviates: Ca influx (calcium uptake assay), hP2X2/3H.
Where [2] appears, read: Ca influx (calcium uptake assay), hP2X3.
The mark [3] stands for this setting: Ca influx, calcium uptake assay.

Like-named read-outs stand apart in the source and are kept apart here.

As for `Cc1ccc(-c2cc(OC3CNCC3O)cc(C(=O)N[C@H](C)c3cnc(C)nc3)c2)nc1` (some centres unmarked) [Compound 355], the figures for the IC50 at hP2X2/3H (setting [1]) and on hP2X3 (setting [2]) were greater than 1000 nM and less than 100 nM, respectively.

As to `Cc1ccc(-c2cc(C(=O)N[C@H](C)c3cnc(C)nc3)cc(C(O)CO)c2)nc1` (some centres unmarked) [Compound 356], the IC50 is 100 to 500 nM at hP2X2/3H (setting [1]) and less than 100 nM on hP2X3 (setting [2]).

As for `Cc1ccc(-c2cc(OC3CCOC3)cc(C(=O)N[C@H](C)c3cnc(C)nc3)c2)nc1` (some centres unmarked) [Compound 357], the IC50 was 100 to 500 nM on hP2X2/3H (setting [1]) and less than 100 nM on hP2X3 (setting [2]).

Consider `Cc1ccc(-c2cc(OC3CCOC3)cc(C(=O)N[C@H](C)c3cnc(C)nc3)c2)c(C#N)c1` (some centres unmarked) [Compound 358], for which the IC50 at hP2X2/3H (setting [1]) and at hP2X3 (setting [2]) was less than 100 nM in each case.

As for `Cc1ccc(-c2cc(OC3CCOC3)cc(C(=O)N[C@H](C)c3cnc(C)nc3)c2)cc1` (some centres unmarked) [Compound 359], the IC50 at hP2X2/3H (setting [1]) and on hP2X3 (setting [2]) was less than 100 nM throughout.

With `Cc1ccc(-c2cc(C(=O)N[C@H](C)c3cnc(C)nc3)cc(C(O)CO)c2)c(C#N)c1` (some centres unmarked) [Compound 360], the IC50 was 100 to 500 nM at hP2X2/3H (setting [1]) and less than 100 nM at hP2X3 (setting [2]).

Consider `Cc1ccc(-c2cc(C(=O)N[C@H](C)c3cnc(C)nc3)cc(C(O)CO)c2)cc1` (some centres unmarked) [Compound 361], for which the IC50 is 100 to 500 nM at hP2X2/3H (setting [1]) and less than 100 nM on hP2X3 (setting [2]).

Turning to `Cc1ccc(-c2cc(OC3COCC3O)cc(C(=O)N[C@H](C)c3cnc(C)nc3)c2)cc1` (some centres unmarked) [Compound 362], the IC50 at hP2X2/3H (setting [1]) and at hP2X3 (setting [2]) was less than 100 nM each time.

On to `Cc1ccc(-c2cc(OC3COCC3O)cc(C(=O)N[C@H](C)c3cnc(C)nc3)c2)c(C#N)c1` (some centres unmarked) [Compound 363], for which the IC50 on hP2X2/3H (setting [1]) and on hP2X3 (setting [2]) was less than 100 nM throughout.

As for `Cc1ccc(-c2cc(OC3COCC3O)cc(C(=O)N[C@H](C)c3cnc(C)nc3)c2)nc1` (some centres unmarked) [Compound 364], the IC50 on hP2X2/3H (setting [1]) is 100 to 500 nM; on hP2X3 (setting [2]), less than 100 nM.

For the compound `Cc1ccc(-c2cc(C(=O)NCc3ccc(C)nc3)cc(C(O)CN3CCOCC3)c2)cc1` (centres unmarked) [Compound 365, 5-(1-Hydroxy-2-morpholinoethyl)-4′-methyl-N-((6-methylpyridin-3-yl)methyl)biphenyl-3-carboxamide], the IC50 on hP2X2/3H (setting [1]) and on hP2X3 (setting [2]) was less than 100 nM in each case.

For `Cc1ccc(-c2cc(C(=O)NCc3ccc(C)nc3)cc(C(O)CN3CCN(C)CC3)c2)cc1` (centres unmarked) [Compound 366], the IC50 on hP2X2/3H (setting [1]) is 501 to 1000 nM; on hP2X3 (setting [2]) it was less than 100 nM.

Consider `Cc1ccc(-c2cc(C(=O)NCc3ccc(C)nc3)cc(C(O)CN(C)C)c2)cc1` (centres unmarked) [Compound 367], for which the IC50 at hP2X2/3H (setting [1]) is greater than 1000 nM; on hP2X3 (setting [2]) it was less than 100 nM.

As to `Cc1ccc(-c2cc(C(=O)NCc3ccc(C)nc3)cc(C(O)CN(C)CCO)c2)cc1` (centres unmarked) [Compound 368], the figures for the IC50 on hP2X2/3H (setting [1]) and at hP2X3 (setting [2]) were 501 to 1000 nM and less than 100 nM, respectively.

With `Cc1ncc([C@@H](C)NC(=O)c2cc(-c3ccccc3)cc(S(C)(=O)=O)c2)cn1` [Compound 370], the figures for the IC50 on hP2X2/3H (setting [1]) and on hP2X3 (setting [2]) were 501 to 1000 nM and less than 100 nM, respectively.

Consider `Cc1ccc(-c2cc(C(=O)NC(C)c3ccc(Cl)c(S(C)(=O)=O)c3)cc(S(C)(=O)=O)c2)nc1` (centres unmarked) [Compound 371], for which the IC50 at hP2X2/3H (setting [1]) was 100 to 500 nM; at hP2X3 (setting [2]), less than 100 nM.

Regarding `Cc1ccc(-c2cc(Oc3ncc(CO)s3)cc(C(=O)N[C@H](C)c3ccc(C)nc3)c2)nc1` [Compound 372], the IC50 at hP2X2/3H (setting [1]) and on hP2X3 (setting [2]) was less than 100 nM in each case.

Regarding `Cc1ccc(-c2cc(Oc3nc(C)cs3)cc(C(=O)N[C@H](C)c3ccc(C)nc3)c2)c(C#N)c1` [Compound 373], the IC50 on hP2X2/3H (setting [1]) and at hP2X3 (setting [2]) was less than 100 nM in each case.

For the compound `Cc1ccc(-c2cc(Oc3nc(C)cs3)cc(C(=O)N[C@H](C)c3ccc(C)nc3)c2)nc1` [Compound 374], the IC50 on hP2X2/3H (setting [1]) and on hP2X3 (setting [2]) was less than 100 nM throughout.

On to `Cc1ccc(-c2cc(Oc3nc(-c4ccccc4)cs3)cc(C(=O)N[C@H](C)c3ccc(C)nc3)c2)nc1` [Compound 375], for which the IC50 on hP2X2/3H (setting [1]) and on hP2X3 (setting [2]) was 100 to 500 nM in each case.

For `Cc1ccc(-c2cc(Oc3nc4ccccc4s3)cc(C(=O)N[C@H](C)c3ccc(C)nc3)c2)nc1` [Compound 376], the IC50 on hP2X2/3H (setting [1]) and on hP2X3 (setting [2]) was less than 100 nM in each case.

As to `Cc1ccc(-c2cc(OC(C)CO)cc(C(=O)N[C@H](C)c3ccc(C)nc3)c2)c(C#N)c1` (some centres unmarked) [Compound 377], the IC50 on hP2X2/3H (setting [1]) and on hP2X3 (setting [2]) was less than 100 nM in each case.

Turning to `COCC(CO)Oc1cc(C(=O)N[C@H](C)c2ccc(C)nc2)cc(-c2ccc(C)cc2C#N)c1` (some centres unmarked) [Compound 378], the IC50 at hP2X2/3H (setting [1]) and at hP2X3 (setting [2]) was less than 100 nM in each case.

In the case of `CCC(O)c1cc(C(=O)N[C@H](C)c2ccc(C)nc2)cc(-c2ccc(C)cc2)c1` (some centres unmarked) [Compound 379], the IC50 on hP2X2/3H (setting [1]) and at hP2X3 (setting [2]) was less than 100 nM throughout.

For `COCC(OC)c1cc(C(=O)N[C@H](C)c2ccc(C)nc2)cc(-c2ccc(C)cc2)c1` (some centres unmarked) [Compound 380], the IC50 on hP2X2/3H (setting [1]) and at hP2X3 (setting [2]) was less than 100 nM each time.

Turning to `Cc1ccc(-c2cc(Oc3nc(C)cs3)cc(C(=O)N[C@H](C)c3ccc(C)nc3)c2)cc1` [Compound 381], the IC50 on hP2X2/3H (setting [1]) and at hP2X3 (setting [2]) was less than 100 nM each time.

Regarding `Cc1ccc(-c2cc(Oc3nc(Cl)cs3)cc(C(=O)N[C@H](C)c3ccc(C)nc3)c2)nc1` [Compound 384], the IC50 at hP2X2/3H (setting [1]) and at hP2X3 (setting [2]) was less than 100 nM each time.

`Cc1ccc(-c2cc(C(=O)NCc3ccc(Cl)cc3Cl)cc(S(C)(=O)=O)c2)nc1` [Compound 385]: the IC50 at hP2X2/3H (setting [1]) and on hP2X3 (setting [2]) was 100 to 500 nM in each case.

On to `Cc1ccc(-c2cc(C(=O)NC(C)c3ccc(Cl)cc3Cl)cc(S(C)(=O)=O)c2)nc1` (centres unmarked) [Compound 387], for which the IC50 at hP2X2/3H (setting [1]) was greater than 1000 nM; at hP2X3 (setting [2]), 100 to 500 nM.

For the compound `Cc1ccc(-c2cc(C(=O)NCc3ccc(C)nc3)cc(C(O)CN3CC(O)C3)c2)cc1` (centres unmarked) [Compound 388], the IC50 on hP2X2/3H (setting [1]) was 100 to 500 nM; at hP2X3 (setting [2]), less than 100 nM.

Take `COC1CCN(CC(O)c2cc(C(=O)NCc3ccc(C)nc3)cc(-c3ccc(C)cc3)c2)CC1` (centres unmarked) [Compound 389]: the values for the IC50 on hP2X2/3H (setting [1]) and on hP2X3 (setting [2]) were 100 to 500 nM and less than 100 nM, respectively.

As for `Cc1ccc(-c2cc(C(=O)NCc3ccc(C)nc3)cc(C(O)CN3CCOCC3CO)c2)cc1` (centres unmarked) [Compound 390], the IC50 on hP2X2/3H (setting [1]) and on hP2X3 (setting [2]) was less than 100 nM throughout.

With `Cc1ccc(-c2cc(C(=O)NCc3ccc(C)nc3)cc(C(O)CN3CC(C)OC(C)C3)c2)cc1` (centres unmarked) [Compound 391], the IC50 at hP2X2/3H (setting [1]) and at hP2X3 (setting [2]) was less than 100 nM in each case.

On to `Cc1ccc(-c2cc(Oc3nc4ccccc4s3)cc(C(=O)N[C@H](C)c3ccc(C)nc3)c2)c(C#N)c1` [Compound 392], for which the IC50 on hP2X2/3H (setting [1]) and on hP2X3 (setting [2]) was 100 to 500 nM each time.

As to `Cc1ccc(-c2cc(Oc3nc4c(s3)CCCC4)cc(C(=O)N[C@H](C)c3ccc(C)nc3)c2)cc1` [Compound 393], the IC50 at hP2X2/3H (setting [1]) and at hP2X3 (setting [2]) was 100 to 500 nM each time.

As to `Cc1ccc(-c2cc(Oc3nc(Cl)cs3)cc(C(=O)N[C@H](C)c3ccc(C)nc3)c2)c(C#N)c1` [Compound 395], the IC50 at hP2X2/3H (setting [1]) and at hP2X3 (setting [2]) was less than 100 nM throughout.

On to `CCC(O)c1cc(C(=O)N[C@H](C)c2cnc(C)nc2)cc(-c2ccc(C)cc2C#N)c1` (some centres unmarked) [Compound 396], for which the IC50 at hP2X2/3H (setting [1]) and at hP2X3 (setting [2]) was less than 100 nM each time.

In the case of `Cc1ccc(-c2cc(C(=O)N[C@H](C)c3cnc(C)nc3)cc(C(O)C(C)C)c2)cc1` (some centres unmarked) [Compound 397], the IC50 at hP2X2/3H (setting [1]) and at hP2X3 (setting [2]) was less than 100 nM throughout.

With `Cc1ccc(-c2cc(C(=O)N[C@H](C)c3cnc(C)nc3)cc(C(C)(C)O)c2)cc1` [Compound 398], the IC50 at hP2X2/3H (setting [3]) and on hP2X3 (setting [3]) was less than 100 nM each time.

Take `Cc1ccc(-c2cc(C(=O)NCc3ccc(C)nc3)cc(C(O)CN3CC4CN(C)CC4C3)c2)cc1` (centres unmarked) [Compound 399]: the IC50 on hP2X2/3H (setting [3]) fell in the range of 501 to 1000 nM; on hP2X3 (setting [3]) it was 100 to 500 nM.

Values taken from patent publication US8946439B2, “Amide compounds, compositions and uses thereof” (Evotec AG, priority 2008, dated 2015).
